Broadly, the EC50 is the concentration needed to bring the measured effect to its halfway point.

The assay has as its system HCV 1b-377-neo replicon cells. Description: HCV replicon assay, HCV 1b-377-neo replicon cells (1b FRET). The format is cell-based, Hepatitis C virus genotype 1b. The note with it: Hepatitis C virus, HCV 1b-377-neo replicon cells; HCV 1b genotype; read-out: EC50 range against HCV 1b (Table 2, Range). The procedure, abridged: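 Compounds were tested in genotype 1b subgenomic replicon cells carrying a neomycin marker, alongside a matched replicon line with an NS5A Y2065H substitution that confers resistance to a reference NS5A inhibitor.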

With `CCN(CC)[C@@H](C(=O)N1CCC[C@H]1c1ncc(-c2ccc(-c3ccc(-c4cnc([C@@H]5CCCN5C(=O)[C@@H](NC5=NCCN5)C(C)C)[nH]4)cc3)cc2)[nH]1)c1ccccc1` [cj-11g, N-((1S)-1-(((2S)-2-(5-(4′-(2-((2S)-1-((2R)-2-(diethylamino)-2-phenylacetyl)-2-pyrrolidinyl)-1H-imidazol-5-yl)-4-biphenylyl)-1H-imidazol-2-yl)-1-pyrrolidinyl)carbonyl)-2-methylpropyl)-4,5-dihydro-1H-imidazol-2-amine], the EC50 is 1 to 99 nM. On to `COC(=O)N[C@H](C(=O)N1CCC[C@H]1c1ncc(-c2ccc(-c3ccc(-c4cnc([C@@H]5CCCN5C(=O)[C@H](Nc5ncccn5)C(C)C)[nH]4)cc3)cc2)[nH]1)C(C)C` [cj-11i, methyl ((1S)-2-methyl-1-(((2S)-2-(5-(4′-(2-((2S)-1-(N-2-pyrimidinyl-D-valyl)-2-pyrrolidinyl)-1H-imidazol-5-yl)-4-biphenylyl)-1H-imidazol-2-yl)-1-pyrrolidinyl)carbonyl)propyl)carbamate], for which the EC50 was in the range of 0.001 to 0.999 nM. As to `COC(=O)N[C@@H](C)C(=O)N1CCC[C@H]1c1ncc(-c2ccc(-c3ccc(-c4cnc([C@@H]5CCCN5C(=O)[C@H](Nc5ncccn5)C(C)C)[nH]4)cc3)cc2)[nH]1` [cj-11j, methyl ((1S)-1-methyl-2-oxo-2-((2S)-2-(5-(4′-(2-((2S)-1-(N-2-pyrimidinyl-D-valyl)-2-pyrrolidinyl)-1H-imidazol-5-yl)-4-biphenylyl)-1H-imidazol-2-yl)-1-pyrrolidinyl)ethyl)carbamate], the EC50 lay in the range of 0.001 to 0.999 nM.

For the molecule `CCN(CC)[C@@H](C(=O)N1CCC[C@H]1c1ncc(-c2ccc(-c3ccc(-c4cnc([C@@H]5CCCN5C(=O)[C@H](Nc5ncccn5)C(C)C)[nH]4)cc3)cc2)[nH]1)c1ccccc1` [cj-11k, N-((1R)-1-(((2S)-2-(5-(4′-(2-((2S)-1-((2R)-2-(diethylamino)-2-phenylacetyl)-2-pyrrolidinyl)-1H-imidazol-5-yl)-4-biphenylyl)-1H-imidazol-2-yl)-1-pyrrolidinyl)carbonyl)-2-methylpropyl)-2-pyrimidinamine], the EC50 is 0.001 to 0.999 nM.

Take `COC(=O)N[C@H](C(=O)N1CCC[C@H]1c1ncc(-c2ccc(-c3ccc(-c4cnc([C@@H]5CCCN5C(=O)[C@H](NC5=NCCN5C)C(C)C)[nH]4)cc3)cc2)[nH]1)C(C)C` [cj-11m, methyl ((1S)-2-methyl-1-(((2S)-2-(5-(4′-(2-((2S)-1-(N-(1-methyl-4,5-dihydro-1H-imidazol-2-yl)-D-valyl)-2-pyrrolidinyl)-1H-imidazol-5-yl)-4-biphenylyl)-1H-imidazol-2-yl)-1-pyrrolidinyl)carbonyl)propyl)carbamate]: the EC50 lay in the range of 1 to 99 nM. On to `COC(=O)N[C@H](C(=O)N1CCC[C@H]1c1ncc(-c2ccc(-c3ccc(-c4cnc([C@@H]5CCCN5C(=O)[C@H](NC5=NCCN5)C(C)C)[nH]4)cc3)cc2)[nH]1)C(C)C` [cj-11n, methyl ((1S)-1-(((2S)-2-(5-(4′-(2-((2S)-1-(N-(4,5-dihydro-1H-imidazol-2-yl)-D-valyl)-2-pyrrolidinyl)-1H-imidazol-5-yl)-4-biphenylyl)-1H-imidazol-2-yl)-1-pyrrolidinyl)carbonyl)-2-methylpropyl)carbamate], for which the EC50 is 1 to 99 nM. As to `COC(=O)N[C@H](C(=O)N1CCC[C@H]1c1ncc(-c2ccc(-c3ccc(-c4cnc([C@@H]5CCCN5C(=O)[C@H](NC5=NCCN5)C(C)C)[nH]4)cc3)cc2)[nH]1)C1CC1` [cj-11o, methyl ((1S)-1-cyclopropyl-2-((2S)-2-(5-(4′-(2-((2S)-1-(N-(4,5-dihydro-1H-imidazol-2-yl)-D-valyl)-2-pyrrolidinyl)-1H-imidazol-5-yl)-4-biphenylyl)-1H-imidazol-2-yl)-1-pyrrolidinyl)-2-oxoethyl)carbamate], the EC50 lay within 1 to 99 nM. For the molecule `CCN(CC)[C@@H](C(=O)N1CCC[C@H]1c1ncc(-c2ccc(-c3ccc(-c4cnc([C@@H]5CCCN5C(=O)[C@H](NC5=NCCN5)C(C)C)[nH]4)cc3)cc2)[nH]1)c1ccccc1` [cj-11p, N-((1R)-1-(((2S)-2-(5-(4′-(2-((2S)-1-((2R)-2-(diethylamino)-2-phenylacetyl)-2-pyrrolidinyl)-1H-imidazol-5-yl)-4-biphenylyl)-1H-imidazol-2-yl)-1-pyrrolidinyl)carbonyl)-2-methylpropyl)-4,5-dihydro-1H-imidazol-2-amine], the EC50 fell in the range of 0.001 to 0.999 nM. With `COC(=O)N[C@H](C(=O)N1CCC[C@H]1c1ncc(-c2ccc(-c3ccc(-c4cnc([C@@H]5CCCN5C(=O)[C@@H](NC5=NCCS5)C(C)C)[nH]4)cc3)cc2)[nH]1)C(C)C` [cj-15c, methyl ((1S)-1-(((2S)-2-(5-(4′-(2-((2S)-1-(N-(4,5-dihydro-1,3-thiazol-2-yl)-L-valyl)-2-pyrrolidinyl)-1H-imidazol-5-yl)-4-biphenylyl)-1H-imidazol-2-yl)-1-pyrrolidinyl)carbonyl)-2-methylpropyl)carbamate], the EC50 is 0.001 to 0.999 nM. Take `COC(=O)N[C@H](C(=O)N1CCC[C@H]1c1ncc(-c2ccc(-c3ccc(-c4cnc([C@@H]5CCCN5C(=O)[C@@H](Nc5ccncn5)C(C)C)[nH]4)cc3)cc2)[nH]1)C(C)C` [cj-15d, methyl ((1S)-2-methyl-1-(((2S)-2-(5-(4′-(2-((2S)-1-(N-4-pyrimidinyl-L-valyl)-2-pyrrolidinyl)-1H-imidazol-5-yl)-4-biphenylyl)-1H-imidazol-2-yl)-1-pyrrolidinyl)carbonyl)propyl)carbamate]: the 50% effective concentration (EC50) is 0.001 to 0.999 nM.

`COC(=O)N[C@H](C(=O)N1CCC[C@H]1c1ncc(-c2ccc(-c3ccc(-c4cnc([C@@H]5CCCN5C(=O)[C@@H](Nc5noc(N)n5)C(C)C)[nH]4)cc3)cc2)[nH]1)C(C)C` [cj-16, methyl ((1S)-1-(((2S)-2-(5-(4′-(2-((2S)-1-(N-(5-amino-1,2,4-oxadiazol-3-yl)-L-valyl)-2-pyrrolidinyl)-1H-imidazol-5-yl)-4-biphenylyl)-1H-imidazol-2-yl)-1-pyrrolidinyl)carbonyl)-2-methylpropyl)carbamate]: the EC50 was 0.001 to 0.999 nM. With `COC(=O)N[C@H](C(=O)N1CCC[C@H]1c1ncc(-c2ccc(-c3ccc(-c4cnc([C@@H]5CCCN5C(=O)[C@@H](NC(=NC#N)N(C)C)C(C)C)[nH]4)cc3)cc2)[nH]1)C(C)C` [cj-17, methyl ((1S)-1-(((2S)-2-(5-(4′-(2-((2S)-1-(N-(cyano(dimethyl)carbamimidoyl)-L-valyl)-2-pyrrolidinyl)-1H-imidazol-5-yl)-4-biphenylyl)-1H-imidazol-2-yl)-1-pyrrolidinyl)carbonyl)-2-methylpropyl)carbamate], the EC50 fell in the range of 0.001 to 0.999 nM. As to `COC(=O)N[C@H](C(=O)N1CCC[C@H]1c1ncc(-c2ccc(-c3ccc(-c4cnc([C@@H]5CCCN5C(=O)[C@@H](Nc5cccnc5)C(C)C)[nH]4)cc3)cc2)[nH]1)C(C)C` [cj-20, methyl ((1S)-2-methyl-1-(((2S)-2-(5-(4′-(2-((2S)-1-(N-3-pyridinyl-L-valyl)-2-pyrrolidinyl)-1H-imidazol-5-yl)-4-biphenylyl)-1H-imidazol-2-yl)-1-pyrrolidinyl)carbonyl)propyl)carbamate], the EC50 is 0.001 to 0.999 nM.

These data come from patent US8574563B2 (Bristol-Myers Squibb Company, priority 2006, dated 2013).
